Measurements: ChEMBL document CHEMBL1909046, “DrugMatrix in vitro pharmacology data”

How the values were obtained:
[1] = target: Sodium-dependent noradrenaline transporter (Homo sapiens, UniProt P23975); assay: DRUGMATRIX: Norepinephrine Transporter radioligand binding (ligand: [125I] RTI-55); format: cell membranes, MDCK, Membrane; details: Not Active = under 50% inhibition at 10 µM; for Ki: read-out: Ki
Cytochrome P450 3A4 [2] = target: T1, Cytochrome P450 3A4 (Homo sapiens, UniProt P08684); note: in other assays of this panel Not Active means under 50% inhibition at 10 µM
Androgen receptor = target: T2, Androgen receptor (Rattus norvegicus, UniProt P15207); note: in other assays of this panel Not Active means under 50% inhibition at 10 µM
T2 sequence (P15207 whole entry): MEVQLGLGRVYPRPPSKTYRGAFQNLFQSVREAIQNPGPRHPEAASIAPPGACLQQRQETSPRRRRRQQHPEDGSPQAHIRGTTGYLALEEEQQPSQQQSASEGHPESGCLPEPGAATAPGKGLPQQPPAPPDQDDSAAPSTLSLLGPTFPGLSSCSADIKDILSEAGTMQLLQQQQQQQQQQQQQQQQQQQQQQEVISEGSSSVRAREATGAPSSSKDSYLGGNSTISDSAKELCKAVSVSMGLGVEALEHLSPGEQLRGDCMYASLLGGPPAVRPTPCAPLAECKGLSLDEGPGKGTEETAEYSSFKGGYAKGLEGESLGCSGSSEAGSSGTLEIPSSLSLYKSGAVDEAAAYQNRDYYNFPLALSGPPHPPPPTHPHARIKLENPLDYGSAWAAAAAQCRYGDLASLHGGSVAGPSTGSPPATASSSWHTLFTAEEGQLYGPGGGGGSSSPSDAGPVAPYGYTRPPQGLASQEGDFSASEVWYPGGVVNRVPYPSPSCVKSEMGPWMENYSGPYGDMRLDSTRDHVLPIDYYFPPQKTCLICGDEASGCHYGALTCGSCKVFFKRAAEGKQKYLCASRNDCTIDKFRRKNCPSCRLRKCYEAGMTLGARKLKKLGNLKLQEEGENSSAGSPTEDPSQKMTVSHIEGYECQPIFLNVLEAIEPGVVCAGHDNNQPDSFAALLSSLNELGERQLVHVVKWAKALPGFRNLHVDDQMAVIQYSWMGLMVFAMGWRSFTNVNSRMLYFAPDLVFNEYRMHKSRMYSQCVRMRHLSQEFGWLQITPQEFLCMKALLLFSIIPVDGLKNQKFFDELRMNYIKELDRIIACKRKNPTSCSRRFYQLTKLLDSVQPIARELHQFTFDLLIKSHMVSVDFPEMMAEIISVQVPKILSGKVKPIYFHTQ

Cytochrome P450 1A2 [3] = target: T3, Cytochrome P450 1A2 (Homo sapiens, UniProt P05177); details: bti-tn-5b1-4; note: in other assays of this panel Not Active means under 50% inhibition at 10 µM
T3 sequence (P05177 whole entry): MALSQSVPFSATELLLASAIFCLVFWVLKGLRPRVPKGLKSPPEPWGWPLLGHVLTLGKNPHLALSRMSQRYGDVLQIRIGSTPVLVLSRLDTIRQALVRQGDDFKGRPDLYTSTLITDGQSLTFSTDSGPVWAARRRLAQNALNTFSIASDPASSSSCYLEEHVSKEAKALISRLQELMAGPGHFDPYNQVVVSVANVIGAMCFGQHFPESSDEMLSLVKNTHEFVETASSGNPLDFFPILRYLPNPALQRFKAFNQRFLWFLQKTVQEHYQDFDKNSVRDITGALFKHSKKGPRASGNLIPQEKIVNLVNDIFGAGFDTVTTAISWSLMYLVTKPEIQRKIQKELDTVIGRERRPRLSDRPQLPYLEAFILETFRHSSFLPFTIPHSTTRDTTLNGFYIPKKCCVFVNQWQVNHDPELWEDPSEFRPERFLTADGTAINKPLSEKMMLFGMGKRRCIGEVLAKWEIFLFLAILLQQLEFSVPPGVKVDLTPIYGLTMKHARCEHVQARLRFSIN

Cytochrome P450 2C19 [4] = target: T4, Cytochrome P450 2C19 (Homo sapiens, UniProt P33261); details: bti-tn-5b1-4; note: in other assays of this panel Not Active means under 50% inhibition at 10 µM
Cytochrome P450 2D6 [5] = target: T5, Cytochrome P450 2D6 (Homo sapiens, UniProt P10635); details: bti-tn-5b1-4; note: in other assays of this panel Not Active means under 50% inhibition at 10 µM
Glucocorticoid receptor [6] = target: T6, Glucocorticoid receptor (Homo sapiens, UniProt P04150); details: hela s3; note: in other assays of this panel Not Active means under 50% inhibition at 10 µM
T6 sequence (P04150 whole entry): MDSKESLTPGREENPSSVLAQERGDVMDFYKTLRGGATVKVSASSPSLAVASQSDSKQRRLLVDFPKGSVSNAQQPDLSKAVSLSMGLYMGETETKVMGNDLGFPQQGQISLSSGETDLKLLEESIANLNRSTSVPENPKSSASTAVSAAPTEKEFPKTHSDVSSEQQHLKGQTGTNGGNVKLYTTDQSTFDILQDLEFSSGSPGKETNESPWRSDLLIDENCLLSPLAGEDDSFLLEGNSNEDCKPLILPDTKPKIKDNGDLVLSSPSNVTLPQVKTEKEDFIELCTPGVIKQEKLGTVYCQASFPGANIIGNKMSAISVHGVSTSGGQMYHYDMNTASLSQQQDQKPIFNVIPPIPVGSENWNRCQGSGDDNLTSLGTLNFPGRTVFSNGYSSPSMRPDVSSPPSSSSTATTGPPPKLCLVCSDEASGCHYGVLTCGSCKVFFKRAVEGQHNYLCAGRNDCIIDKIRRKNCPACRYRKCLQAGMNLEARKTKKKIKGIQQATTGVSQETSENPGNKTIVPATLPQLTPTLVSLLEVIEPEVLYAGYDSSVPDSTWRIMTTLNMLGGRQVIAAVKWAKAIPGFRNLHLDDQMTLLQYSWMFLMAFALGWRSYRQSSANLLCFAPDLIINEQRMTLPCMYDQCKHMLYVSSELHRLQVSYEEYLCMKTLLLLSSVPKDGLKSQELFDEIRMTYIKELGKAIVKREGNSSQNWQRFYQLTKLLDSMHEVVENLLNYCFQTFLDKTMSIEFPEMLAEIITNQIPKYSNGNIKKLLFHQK

[7] = target: Voltage-gated inwardly rectifying potassium channel KCNH2 (Homo sapiens, UniProt Q12809); details: hek293; note: in other assays of this panel Not Active means under 50% inhibition at 10 µM
Cytochrome P450 1A2 [8] = target: T3, Cytochrome P450 1A2
Cytochrome P450 3A4 [9] = target: T1, Cytochrome P450 3A4; details: bti-tn-5b1-4
Cytochrome P450 2C19 [10] = target: T4, Cytochrome P450 2C19
Glucocorticoid receptor [11] = target: T6, Glucocorticoid receptor; assay: biochemical
Cytochrome P450 2C9 = Cytochrome P450 2C9 (Homo sapiens, UniProt P11712); note: in other assays of this panel Not Active means under 50% inhibition at 10 µM
Cytochrome P450 2D6 [12] = target: T5, Cytochrome P450 2D6

Voltage-gated inwardly rectifying potassium channel KCNH2, sequence (Q12809 whole entry): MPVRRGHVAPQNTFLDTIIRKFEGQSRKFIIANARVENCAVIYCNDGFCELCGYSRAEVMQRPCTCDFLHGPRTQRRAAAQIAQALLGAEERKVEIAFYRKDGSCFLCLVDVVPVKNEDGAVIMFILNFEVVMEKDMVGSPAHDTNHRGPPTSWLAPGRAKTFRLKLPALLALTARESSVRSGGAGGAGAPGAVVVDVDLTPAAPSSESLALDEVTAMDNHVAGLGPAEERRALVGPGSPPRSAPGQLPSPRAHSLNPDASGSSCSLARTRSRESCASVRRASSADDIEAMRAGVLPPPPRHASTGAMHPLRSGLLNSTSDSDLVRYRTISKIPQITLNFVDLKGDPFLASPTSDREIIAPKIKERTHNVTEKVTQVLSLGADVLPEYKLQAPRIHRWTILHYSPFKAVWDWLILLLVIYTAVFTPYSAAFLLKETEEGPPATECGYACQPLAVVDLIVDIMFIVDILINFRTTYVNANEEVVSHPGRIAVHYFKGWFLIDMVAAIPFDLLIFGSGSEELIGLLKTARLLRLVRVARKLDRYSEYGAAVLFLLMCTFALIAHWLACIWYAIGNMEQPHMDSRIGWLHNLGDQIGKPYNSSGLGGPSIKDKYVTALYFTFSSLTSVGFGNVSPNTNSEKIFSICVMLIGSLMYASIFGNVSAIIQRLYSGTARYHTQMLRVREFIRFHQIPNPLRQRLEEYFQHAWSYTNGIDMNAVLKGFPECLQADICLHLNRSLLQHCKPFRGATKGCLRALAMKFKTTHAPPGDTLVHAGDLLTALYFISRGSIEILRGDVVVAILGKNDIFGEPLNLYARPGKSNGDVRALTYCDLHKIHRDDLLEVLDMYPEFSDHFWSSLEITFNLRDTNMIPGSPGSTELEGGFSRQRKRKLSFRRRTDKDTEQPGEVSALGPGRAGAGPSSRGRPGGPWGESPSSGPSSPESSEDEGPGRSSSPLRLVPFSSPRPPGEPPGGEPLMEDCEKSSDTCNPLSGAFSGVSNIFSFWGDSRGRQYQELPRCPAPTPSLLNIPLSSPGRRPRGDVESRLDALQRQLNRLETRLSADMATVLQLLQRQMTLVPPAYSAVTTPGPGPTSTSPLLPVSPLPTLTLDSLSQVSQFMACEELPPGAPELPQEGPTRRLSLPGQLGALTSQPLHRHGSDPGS
Cytochrome P450 2C9, sequence (P11712 whole entry): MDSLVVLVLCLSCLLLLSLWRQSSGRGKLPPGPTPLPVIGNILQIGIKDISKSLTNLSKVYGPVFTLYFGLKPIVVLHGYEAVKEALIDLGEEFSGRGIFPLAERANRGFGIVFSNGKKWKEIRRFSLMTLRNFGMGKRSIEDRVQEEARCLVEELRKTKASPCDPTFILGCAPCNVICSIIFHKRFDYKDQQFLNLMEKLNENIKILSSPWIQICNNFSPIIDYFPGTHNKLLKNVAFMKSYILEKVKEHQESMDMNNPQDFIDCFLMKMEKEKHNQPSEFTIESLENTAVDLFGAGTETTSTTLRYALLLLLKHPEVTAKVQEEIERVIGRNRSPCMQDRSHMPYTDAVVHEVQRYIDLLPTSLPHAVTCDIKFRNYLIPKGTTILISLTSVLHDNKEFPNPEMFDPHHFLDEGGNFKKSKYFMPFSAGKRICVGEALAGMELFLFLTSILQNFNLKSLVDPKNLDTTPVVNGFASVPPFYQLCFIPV
T4 sequence (P33261 whole entry): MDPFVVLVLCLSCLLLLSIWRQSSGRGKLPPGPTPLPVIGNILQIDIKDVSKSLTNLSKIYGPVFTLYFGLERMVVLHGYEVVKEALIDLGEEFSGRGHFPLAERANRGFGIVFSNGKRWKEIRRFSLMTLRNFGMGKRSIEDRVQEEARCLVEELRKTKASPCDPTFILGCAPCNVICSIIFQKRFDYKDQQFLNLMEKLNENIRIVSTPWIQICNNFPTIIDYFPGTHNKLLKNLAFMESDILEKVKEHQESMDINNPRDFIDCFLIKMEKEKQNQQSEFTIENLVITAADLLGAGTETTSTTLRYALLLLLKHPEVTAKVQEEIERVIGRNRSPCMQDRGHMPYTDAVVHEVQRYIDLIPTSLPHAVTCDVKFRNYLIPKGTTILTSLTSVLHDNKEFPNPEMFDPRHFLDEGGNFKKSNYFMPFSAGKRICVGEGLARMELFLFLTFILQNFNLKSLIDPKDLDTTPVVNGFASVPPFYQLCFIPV
T1 sequence (P08684 whole entry): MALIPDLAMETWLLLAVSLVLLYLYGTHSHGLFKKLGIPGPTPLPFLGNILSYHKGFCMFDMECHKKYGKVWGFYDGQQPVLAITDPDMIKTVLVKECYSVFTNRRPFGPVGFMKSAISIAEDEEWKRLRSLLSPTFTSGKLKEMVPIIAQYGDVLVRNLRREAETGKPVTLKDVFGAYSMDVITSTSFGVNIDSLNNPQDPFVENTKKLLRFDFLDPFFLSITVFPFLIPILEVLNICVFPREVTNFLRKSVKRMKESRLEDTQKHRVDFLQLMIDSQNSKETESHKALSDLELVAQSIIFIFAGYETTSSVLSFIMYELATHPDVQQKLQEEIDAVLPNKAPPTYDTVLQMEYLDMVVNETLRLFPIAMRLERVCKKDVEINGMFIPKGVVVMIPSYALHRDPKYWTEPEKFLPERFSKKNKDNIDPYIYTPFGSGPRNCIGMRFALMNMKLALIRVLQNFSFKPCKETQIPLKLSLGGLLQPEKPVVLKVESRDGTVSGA
T5 sequence (P10635 whole entry): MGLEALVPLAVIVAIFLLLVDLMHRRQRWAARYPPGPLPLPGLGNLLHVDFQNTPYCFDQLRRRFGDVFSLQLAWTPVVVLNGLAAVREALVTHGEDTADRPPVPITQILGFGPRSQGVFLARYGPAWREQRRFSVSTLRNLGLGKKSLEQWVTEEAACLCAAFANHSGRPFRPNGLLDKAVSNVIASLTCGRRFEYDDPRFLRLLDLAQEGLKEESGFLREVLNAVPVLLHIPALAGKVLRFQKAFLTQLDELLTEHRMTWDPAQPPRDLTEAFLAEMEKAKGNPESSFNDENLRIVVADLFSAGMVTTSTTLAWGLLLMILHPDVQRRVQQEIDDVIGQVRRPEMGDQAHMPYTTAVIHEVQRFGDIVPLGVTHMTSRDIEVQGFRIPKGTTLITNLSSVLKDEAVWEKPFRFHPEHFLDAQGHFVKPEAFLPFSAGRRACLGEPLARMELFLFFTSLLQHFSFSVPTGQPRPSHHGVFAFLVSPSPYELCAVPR
Sodium-dependent noradrenaline transporter, sequence (P23975 whole entry): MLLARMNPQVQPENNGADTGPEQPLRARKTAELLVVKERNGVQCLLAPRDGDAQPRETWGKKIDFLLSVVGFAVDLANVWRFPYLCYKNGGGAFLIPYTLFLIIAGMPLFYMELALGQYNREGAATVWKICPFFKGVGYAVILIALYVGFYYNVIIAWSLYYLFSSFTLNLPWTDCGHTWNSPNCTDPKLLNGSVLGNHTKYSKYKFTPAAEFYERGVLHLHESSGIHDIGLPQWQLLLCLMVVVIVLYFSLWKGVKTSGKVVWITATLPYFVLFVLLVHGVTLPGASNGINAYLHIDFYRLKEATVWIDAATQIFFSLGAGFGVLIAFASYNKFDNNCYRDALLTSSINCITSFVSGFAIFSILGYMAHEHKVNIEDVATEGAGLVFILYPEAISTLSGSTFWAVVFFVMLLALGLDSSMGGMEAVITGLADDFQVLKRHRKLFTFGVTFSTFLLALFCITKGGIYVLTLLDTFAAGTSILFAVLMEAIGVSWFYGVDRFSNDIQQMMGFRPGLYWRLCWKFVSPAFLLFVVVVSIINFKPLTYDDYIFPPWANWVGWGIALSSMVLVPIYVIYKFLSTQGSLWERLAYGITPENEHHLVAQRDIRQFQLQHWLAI

C=CC[C@@H]1/C=C(\C)C[C@H](C)C[C@H](OC)[C@H]2O[C@@](O)(C(=O)C(=O)N3CCCC[C@H]3C(=O)O[C@H](/C(C)=C/[C@@H]3CC[C@@H](O)[C@H](OC)C3)[C@H](C)[C@@H](O)CC1=O)[C@H](C)C[C@@H]2OC [TACROLIMUS ANHYDROUS]
IC50 ([1]; mdck): Not Active
IC50 (Cytochrome P450 3A4 [2]): 1 µM
IC50 (Androgen receptor): Not Active
IC50 (Cytochrome P450 1A2 [3]): Not Active
Ki (Cytochrome P450 1A2 [3]): Not Active
IC50 (Cytochrome P450 2C19 [4]): Not Active
Ki (Cytochrome P450 2C19 [4]): Not Active
IC50 (Cytochrome P450 2D6 [5]): Not Active
Ki (Cytochrome P450 2D6 [5]): Not Active
IC50 (Glucocorticoid receptor [6]): Not Active
IC50 [7]: Not Active
Ki [7]: Not Active

c1ccc2[nH]c(-c3cscn3)nc2c1 [THIABENDAZOLE]
IC50 ([1]; mdck): Not Active
IC50 (Cytochrome P450 1A2 [8]): 0.8 µM
IC50 (Androgen receptor): Not Active
IC50 (Cytochrome P450 2C19 [4]): Not Active
Ki (Cytochrome P450 2C19 [4]): Not Active
IC50 (Cytochrome P450 2D6 [5]): Not Active
Ki (Cytochrome P450 2D6 [5]): Not Active
IC50 (Glucocorticoid receptor [6]): Not Active
IC50 [7]: Not Active
Ki [7]: Not Active

COc1c(C)c2c(c(O)c1C/C=C(\C)CCC(=O)OCCN1CCOCC1)C(=O)OC2 [MYCOPHENOLATE MOFETIL]
IC50 ([1]; mdck): Not Active
IC50 (Androgen receptor): Not Active
IC50 (Cytochrome P450 1A2 [3]): Not Active
Ki (Cytochrome P450 1A2 [3]): Not Active
IC50 (Cytochrome P450 2C19 [4]): Not Active
Ki (Cytochrome P450 2C19 [4]): Not Active
IC50 (Cytochrome P450 2D6 [5]): Not Active
Ki (Cytochrome P450 2D6 [5]): Not Active
IC50 (Cytochrome P450 3A4 [9]): Not Active
Ki (Cytochrome P450 3A4 [9]): Not Active
IC50 (Glucocorticoid receptor [6]): Not Active
IC50 [7]: Not Active
Ki [7]: Not Active

IVERMECTIN
IC50 ([1]; mdck, read-out: IC50): 3.95 µM
Ki ([1]; mdck): 3.91 µM
IC50 (Androgen receptor): Not Active
Ki (Androgen receptor): Not Active
IC50 (Cytochrome P450 1A2 [3]): Not Active
Ki (Cytochrome P450 1A2 [3]): Not Active
IC50 (Cytochrome P450 2C19 [4]): Not Active
Ki (Cytochrome P450 2C19 [4]): Not Active
IC50 (Cytochrome P450 2D6 [5]): Not Active
Ki (Cytochrome P450 2D6 [5]): Not Active
IC50 (Cytochrome P450 3A4 [9]): Not Active
Ki (Cytochrome P450 3A4 [9]): Not Active
IC50 (Glucocorticoid receptor [6]): Not Active
Ki (Glucocorticoid receptor [6]): Not Active
IC50 [7]: Not Active
Ki [7]: Not Active

CC(=O)S[C@@H]1CC2=CC(=O)CC[C@]2(C)[C@H]2CC[C@@]3(C)[C@@H](CC[C@@]34CCC(=O)O4)[C@H]12 [SPIRONOLACTONE]
IC50 ([1]; mdck): Not Active
IC50 (Cytochrome P450 2C19 [10]): 3 µM
IC50 (Cytochrome P450 3A4 [9]): Not Active
Ki (Cytochrome P450 3A4 [9]): Not Active
IC50 [7]: Not Active
Ki [7]: Not Active
IC50 (Glucocorticoid receptor [11]): 1.9 µM
Ki (Glucocorticoid receptor [11]): 0.865 µM

NNc1ccccc1 [PHENYLHYDRAZINE]
IC50 ([1]; mdck): Not Active
IC50 (Cytochrome P450 1A2 [8]): 8 µM
IC50 (Cytochrome P450 2C19 [10]): 5 µM
IC50 (Cytochrome P450 2C9): 6 µM
IC50 (Cytochrome P450 2D6 [12]): 3 µM
IC50 [7]: Not Active
Ki [7]: Not Active

Clc1ccccc1C(c1ccccc1)(c1ccccc1)n1ccnc1 [CLOTRIMAZOLE]
IC50 ([1]; read-out: IC50): 7.94 µM
Ki [1]: 7.87 µM
IC50 (Cytochrome P450 2C19 [10]): 0.016 µM
IC50 (Cytochrome P450 2C9): 0.016 µM
IC50 (Cytochrome P450 1A2 [3]): Not Active
Ki (Cytochrome P450 1A2 [3]): Not Active
IC50 (Cytochrome P450 2D6 [5]): Not Active
Ki (Cytochrome P450 2D6 [5]): Not Active
IC50 [7]: Not Active
Ki [7]: Not Active
IC50 (Glucocorticoid receptor [11]): 3.26 µM
Ki (Glucocorticoid receptor [11]): 1.48 µM

CSc1ccc2c(c1)N(CCC1CCCCN1C)c1ccccc1S2 (stereo not drawn) [THIORIDAZINE]
IC50 (Cytochrome P450 1A2 [8]): 9.33 µM
IC50 (Cytochrome P450 2C19 [10]): 6.38 µM
IC50 (Cytochrome P450 3A4 [9]): Not Active
Ki (Cytochrome P450 3A4 [9]): Not Active
IC50 (Glucocorticoid receptor [6]): Not Active

C[C@]12Cc3c[nH]nc3C[C@@H]1CC[C@@H]1[C@@H]2CC[C@@]2(C)[C@H]1CC[C@]2(C)O [STANOZOLOL]
IC50 ([1]; mdck): Not Active
IC50 (Cytochrome P450 2C19 [10]): 0.048 µM
IC50 (Cytochrome P450 2C9): 1.13 µM
IC50 (Cytochrome P450 2D6 [12]): 9.27 µM
IC50 (Cytochrome P450 1A2 [3]): Not Active
Ki (Cytochrome P450 1A2 [3]): Not Active
IC50 (Cytochrome P450 3A4 [9]): Not Active
Ki (Cytochrome P450 3A4 [9]): Not Active
IC50 (Glucocorticoid receptor [6]): Not Active
IC50 [7]: Not Active
Ki [7]: Not Active

CN(C)[C@@H]1C(O)=C(C(N)=O)C(=O)[C@@]2(O)C(O)=C3C(=O)c4c(O)cccc4[C@@](C)(O)[C@H]3C[C@@H]12 [TETRACYCLINE]
IC50 ([1]; mdck): Not Active
IC50 (Androgen receptor): Not Active
IC50 (Cytochrome P450 2C19 [4]): Not Active
Ki (Cytochrome P450 2C19 [4]): Not Active
IC50 (Cytochrome P450 2D6 [5]): Not Active
Ki (Cytochrome P450 2D6 [5]): Not Active
IC50 (Cytochrome P450 3A4 [9]): Not Active
Ki (Cytochrome P450 3A4 [9]): Not Active
IC50 (Glucocorticoid receptor [6]): Not Active
IC50 [7]: Not Active
Ki [7]: Not Active

CC(CCc1ccccc1)NCC(O)c1ccc(O)c(C(N)=O)c1 (stereo not drawn) [LABETALOL]
IC50 ([1]; read-out: IC50): 3.35 µM
Ki [1]: 3.33 µM
IC50 (Cytochrome P450 2D6 [12]): 0.8 µM
IC50 (Cytochrome P450 1A2 [3]): Not Active
Ki (Cytochrome P450 1A2 [3]): Not Active
IC50 (Cytochrome P450 3A4 [9]): Not Active
Ki (Cytochrome P450 3A4 [9]): Not Active
IC50 (Glucocorticoid receptor [6]): Not Active
IC50 [7]: Not Active
Ki [7]: Not Active

CN(N=O)C(=O)N[C@@H](C=O)[C@@H](O)[C@H](O)[C@H](O)CO [STREPTOZOCIN]
IC50 ([1]; mdck): Not Active
IC50 (Androgen receptor): Not Active
IC50 (Cytochrome P450 1A2 [3]): Not Active
Ki (Cytochrome P450 1A2 [3]): Not Active
IC50 (Cytochrome P450 2C19 [4]): Not Active
Ki (Cytochrome P450 2C19 [4]): Not Active
IC50 (Cytochrome P450 2D6 [5]): Not Active
Ki (Cytochrome P450 2D6 [5]): Not Active
IC50 (Cytochrome P450 3A4 [9]): Not Active
Ki (Cytochrome P450 3A4 [9]): Not Active
IC50 (Glucocorticoid receptor [6]): Not Active
IC50 [7]: Not Active
Ki [7]: Not Active
